We go through 13 compounds from patent publication US20230391772A1, “METHODS AND COMPOSITIONS FOR TARGETED PROTEIN DEGRADATION” (Ranok Therapeutics (Hangzhou) Co. Ltd., priority 2020, published 2023).

pEC50, pIC50: −log10 of the molar value.

For assay [1], the system named is NCI-H358 human non-small cell lung cancer. Kind of assay: NCI-H358 CCK-8 proliferation assay. Type of assay: cell-based. The settings on record: NCI-H358 cells, 72 hr. The method in brief: (§1)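 Proliferation of mutant-KRAS(G12C) cells (2 copies in MIA PaCa-2, single copy in NCI-H358/NCI-H23) measured with CCK-8 after treatment across 20 μM–1.02 nM; inhibition expressed relative to vehicle-treated wells after subtracting no-cell background.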

Assay [2] concerns the target T1, HSP90a protein (Homo sapiens, UniProt P07900).
T1 construct: purchased BPS Bioscience 50298
Kind of assay: HSP90α-binding fluorescent polarization (FP) assay, FITC-geldanamycin probe. The settings on record: FP competition with FITC-geldanamycin, 5 nM, 120 min at 25° C. As to the method: HSP90α-Binding Fluorescent Polarization (FP) Assay
Binding of test compounds to HSP90a protein was measured by fluorescent polarization (FP) using the HSP90a (N-terminal) Assay Kit (BPS Bioscience, #50298), following the manufacturer's instructions, except as noted. Fluorescently labeled HSP90-binding compounds, either the provided FITC-geldanamycin (5 nM final concentration) or RNK04010, a triazolone-based HSP90 binding small molecule labeled with BODIPY through a piperizine-phenyl linker (5 nM final concentration) were employed. A 2.5-fold serial dilution of each test compound ranging from 20 μM to 5.2 nM was assayed for binding to HSP90a. After the final step of adding HSP90a protein to each assay well, plates were mixed by brief shaking, incubated at 25° C. for 120 min for FITC-geldanamycin or 300 min for RNK04010, and fluorescence was measured using a PerkinElmer EnVision Plate Reader.

Assay [3] relates to MIA PaCa-2 human pancreatic carcinoma. Kind of assay: MIA PaCa-2 CCK-8 proliferation assay. Type of assay: cell-based. The settings on record: Homo sapiens, MIA PaCa-2, 72 h, MIA PaCa-2 cells. A digest of the protocol: as §1
Assay [4] addresses T1, HSP90a protein. Kind of assay: HSP90α-binding fluorescent polarization (FP) assay, BODIPY-labeled RNK04010 probe. The settings on record: FP competition with RNK04010 (BODIPY-labeled), 5 nM, 300 min at 25° C. The method in brief:
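Compounds (20 μM down to 5.2 nM, 2.5-fold steps) compete with a 5 nM fluorescent tracer for N-terminal HSP90a, measured by fluorescence polarization. With FITC-geldanamycin, plates sit 120 min at 25 °C. With BODIPY-RNK04010, they sit 300 min at 25 °C.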

`CCC(=O)N1CCN(c2nc(N3CCC(CN4CCN(Cc5ccc(-n6c(O)nnc6-c6cc(CC)c(O)cc6O)cc5)CC4)CC3)nc3c2CCN(c2cccc4cccc(Cl)c24)C3)C[C@@H]1CC#N` [Compound 133, (S)-2-(4-(7-(8-chloronaphthalen-1-yl)-2-(4-((4-(4-(3-(5-ethyl-2,4-dihydroxyphenyl)-5-hydroxy-4H-1,2,4-triazol-4-yl)benzyl)piperazin-1-yl)methyl)piperidin-1-yl)-5,6,7,8-tetrahydropyrido[3,4-d]pyrimidin-4-yl)-1-propionylpiperazin-2-yl)acetonitrile, trifluoroacetic acid] gave a negative logarithm of the EC50 (pEC50) in assay [1] of 6.00 to 7.00. The same compound showed a pIC50 on HSP90a protein [2] of 6.00 to 7.00.

In the case of `CCC(=O)N1CCN(c2nc(NCCCNC(=O)C3CCN(Cc4ccc(-n5c(O)nnc5-c5cc(C(C)C)c(O)cc5O)cc4)CC3)nc3c2CCN(c2cccc4cccc(Cl)c24)C3)C[C@@H]1CC#N` [Compound 134, (S)—N-(3-((7-(8-chloronaphthalen-1-yl)-4-(3-(cyanomethyl)-4-propionylpiperazin-1-yl)-5,6,7,8-tetrahydropyrido[3,4-d]pyrimidin-2-yl)amino)propyl)-1-(4-(3-(2,4-dihydroxy-5-isopropylphenyl)-5-hydroxy-4H-1,2,4-triazol-4-yl)benzyl)piperidine-4-carboxamide, trifluoroacetic acid], the pEC50 in assay [1] was < 6.00. The compound also showed a pIC50 at HSP90a protein [2] of 6.00 to 7.00.

Consider `C=C(F)C(=O)N1CCN(c2nc(N3CCC(CN4CCN(Cc5ccc(-n6c(O)nnc6-c6cc(CC)c(O)cc6O)cc5)CC4)CC3)nc3c2CCN(c2cccc4cccc(Cl)c24)C3)C[C@@H]1CC#N` [Compound 135, (S)-2-(4-(7-(8-chloronaphthalen-1-yl)-2-(4-((4-(4-(3-(5-ethyl-2,4-dihydroxyphenyl)-5-hydroxy-4H-1,2,4-triazol-4-yl)benzyl)piperazin-1-yl)methyl)piperidin-1-yl)-5,6,7,8-tetrahydropyrido[3,4-d]pyrimidin-4-yl)-1-(2-fluoroacryloyl)piperazin-2-yl)acetonitrile], for which, in assay [1], the pEC50 is < 6.00. At HSP90a protein [2], this compound had a negative logarithm of the IC50 (pIC50) of 6.00 to 7.00.

Regarding `CC(C)c1cc(-c2nnc(O)n2-c2ccc(CN3CCN(C4CCN(c5nc6c(c(N7CCN(C(=O)C(F)(F)F)[C@@H](CC#N)C7)n5)CCN(c5cccc7cccc(Cl)c57)C6)CC4)CC3)cc2)c(O)cc1O` [Compound 136, (S)-2-(4-(7-(8-chloronaphthalen-1-yl)-2-(4-(4-(4-(3-(2,4-dihydroxy-5-isopropylphenyl)-5-hydroxy-4H-1,2,4-triazol-4-yl)benzyl)piperazin-1-yl)piperidin-1-yl)-5,6,7,8-tetrahydropyrido[3,4-d]pyrimidin-4-yl)-1-(2,2,2-trifluoroacetyl)piperazin-2-yl)acetonitrile], the negative-log EC50 (pEC50) in assay [1] was 6.00 to 7.00. At HSP90a protein [2], the pIC50 is < 6.00.

As for `C=C(F)C(=O)N1CCN(c2nc(N3CCC(CN4CCC(Cc5ccc(-n6c(O)nnc6-c6cc(C(C)C)c(O)cc6O)cc5)CC4)CC3)nc3c2CCN(c2cccc4cccc(Cl)c24)C3)C[C@@H]1CC#N` [Compound 137, (S)-2-(4-(7-(8-chloronaphthalen-1-yl)-2-(4-((4-(4-(3-(2,4-dihydroxy-5-isopropylphenyl)-5-hydroxy-4H-1,2,4-triazol-4-yl)benzyl)piperidin-1-yl)methyl)piperidin-1-yl)-5,6,7,8-tetrahydropyrido[3,4-d]pyrimidin-4-yl)-1-(2-fluoroacryloyl)piperazin-2-yl)acetonitrile, acetic acid], in assay [1], the pEC50 was 6.00 to 7.00. Moreover, on HSP90a protein [2], the negative logarithm of the IC50 (pIC50) is 6.00 to 7.00.

Take `C=C(F)C(=O)N1CCN(c2nc(N3CCC(CN4CCN(Cc5ccc(-n6c(C(=O)NCC(F)(F)F)nnc6-c6cc(CC)c(O)cc6O)cc5)CC4)CC3)nc3c2CCN(c2cccc4cccc(Cl)c24)C3)C[C@@H]1CC#N` [Compound 138, (S)-4-(4-((4-((1-(7-(8-chloronaphthalen-1-yl)-4-(3-(cyanomethyl)-4-(2-fluoroacryloyl)piperazin-1-yl)-5,6,7,8-tetrahydropyrido[3,4-d]pyrimidin-2-yl)piperidin-4-yl)methyl)piperazin-1-yl)methyl)phenyl)-5-(5-ethyl-2,4-dihydroxyphenyl)-N-(2,2,2-trifluoroethyl)-4H-1,2,4-triazole-3-carboxamide]: the pEC50 in assay [1] was < 6.00. Besides, on HSP90a protein [2], the pIC50 is < 6.00.

Compound `CCC(=O)N1CCN(c2nc(OC[C@@H]3CCCN3C(=O)C3CCN(Cc4ccc(-n5c(O)nnc5-c5cc(C(C)C)c(O)cc5O)cc4)CC3)nc3c2CCN(c2cccc4cccc(Cl)c24)C3)C[C@@H]1CC#N` [Compound 140, 2-((S)-4-(7-(8-chloronaphthalen-1-yl)-2-(((S)-1-(1-(4-(3-(2,4-dihydroxy-5-isopropylphenyl)-5-hydroxy-4H-1,2,4-triazol-4-yl)benzyl)piperidine-4-carbonyl)pyrrolidin-2-yl)methoxy)-5,6,7,8-tetrahydropyrido[3,4-d]pyrimidin-4-yl)-1-propionylpiperazin-2-yl)acetonitrile] had a pEC50 in assay [1] of 6.00 to 7.00. Also, on HSP90a protein [2], the negative-log IC50 (pIC50) was 6.00 to 7.00.

For `CCC(=O)N1CCN(c2nc(OC[C@@H]3CCN(C(=O)C4CCN(Cc5ccc(-n6c(O)nnc6-c6cc(C(C)C)c(O)cc6O)cc5)CC4)C3)nc3c2CCN(c2cccc4cccc(Cl)c24)C3)C[C@@H]1CC#N` [Compound 141, 2-((S)-4-(7-(8-chloronaphthalen-1-yl)-2-(((R)-1-(1-(4-(3-(2,4-dihydroxy-5-isopropylphenyl)-5-hydroxy-4H-1,2,4-triazol-4-yl)benzyl)piperidine-4-carbonyl)pyrrolidin-3-yl)methoxy)-5,6,7,8-tetrahydropyrido[3,4-d]pyrimidin-4-yl)-1-propionylpiperazin-2-yl)acetonitrile], in assay [1], the pEC50 was 6.00 to 7.00. On HSP90a protein [2], this compound showed a pIC50 of 6.00 to 7.00.

For `C=C(F)C(=O)N1CCN(c2nc(N3CCC(Cc4ccc(-n5c(C(=O)NCC(F)(F)F)nnc5-c5cc(C(C)C)c(O)cc5O)cc4)CC3)nc3c2CCN(c2cccc4cccc(Cl)c24)C3)C[C@@H]1CC#N` [Compound 142, (S)-4-(4-((1-(7-(8-chloronaphthalen-1-yl)-4-(3-(cyanomethyl)-4-(2-fluoroacryloyl)piperazin-1-yl)-5,6,7,8-tetrahydropyrido[3,4-d]pyrimidin-2-yl)piperidin-4-yl)methyl)phenyl)-5-(2,4-dihydroxy-5-isopropylphenyl)-N-(2,2,2-trifluoroethyl)-4H-1,2,4-triazole-3-carboxamide], the pEC50 in assay [1] is < 6.00. In addition, the negative-log IC50 (pIC50) on HSP90a protein [2] was < 6.00.

On to `C=C(F)C(=O)N1CCN(c2nc(OC[C@@H]3CCN(CCCOCCC(=O)NCc4ccc(-n5c(O)nnc5-c5cc(C(C)C)c(O)cc5O)cc4)C3)nc3c2CCN(c2cccc4cccc(Cl)c24)C3)C[C@@H]1CC#N` [Compound 170], for which, in assay [3], the pEC50 was < 6.00. The negative logarithm of the IC50 (pIC50) at HSP90a protein [2] is 6.00 to 7.00.

For the compound `C=C(F)C(=O)N1CCN(c2nc(OC[C@@H]3CCN(C(=O)c4cc(C(C)C)c(O)cc4O)C3)nc3c2CCN(c2cccc4cccc(Cl)c24)C3)C[C@@H]1CC#N` [Compound 171, 2-((S)-4-(7-(8-chloronaphthalen-1-yl)-2-(((R)-1-(2,4-dihydroxy-5-isopropylbenzoyl)pyrrolidin-3-yl)methoxy)-5,6,7,8-tetrahydropyrido[3,4-d]pyrimidin-4-yl)-1-(2-fluoroacryloyl)piperazin-2-yl)acetonitrile], the pEC50 in assay [3] is < 6.00. Besides, the pIC50 at HSP90a protein [2] is < 6.00.

Take `C=CC(=O)N1CCN(c2nc(OC[C@@H]3CCN(C(=O)c4ccc5c(c4)CN(C(=O)c4cc(C(C)C)c(OC)cc4O)C5)C3)nc3c2CCN(c2cccc4cccc(Cl)c24)C3)C[C@@H]1CC#N` [Compound 173, 2-((S)-1-acryloyl-4-(7-(8-chloronaphthalen-1-yl)-2-(((R)-1-(2-(2-hydroxy-5-isopropyl-4-methoxybenzoyl)isoindoline-5-carbonyl)pyrrolidin-3-yl)methoxy)-5,6,7,8-tetrahydropyrido[3,4-d]pyrimidin-4-yl)piperazin-2-yl)acetonitrile]: the pIC50 at HSP90a protein [4] and on HSP90a protein [2] was < 6.00 in each case. Moreover, the pEC50 in assay [3] is < 6.00.

As for `C=C(F)C(=O)N1CCN(c2nc(OC[C@@H]3CCN(C(=O)c4cc(CC)c(O)cc4O)C3)nc3c2CCN(c2cccc4cccc(Cl)c24)C3)C[C@@H]1CC#N` [Compound 174, 2-((S)-4-(7-(8-chloronaphthalen-1-yl)-2-(((R)-1-(5-ethyl-2,4-dihydroxybenzoyl)pyrrolidin-3-yl)methoxy)-5,6,7,8-tetrahydropyrido[3,4-d]pyrimidin-4-yl)-1-(2-fluoroacryloyl)piperazin-2-yl)acetonitrile], the pIC50 on HSP90a protein [4] and on HSP90a protein [2] was < 6.00 throughout. Besides, the pEC50 in assay [3] is < 6.00.
